The values below come from ChEMBL document CHEMBL3879894, “Novel pharmaceutical composition for prevention and/or treatment of attention deficit/hyperactivity disorder” (2012).

Each structure is given as a SMILES string.

The first assay relates to Rattus norvegicus. In words: Prevention of attention deficit/hyperactivity in sc dosed spontaneously hypertensive stroke-prone rat assessed as prolongation of cumulative entry latency administered for 30 mins by passive avoidance response test. The conditions noted are these: 0.5 h, read-out: MED. The assay is classed as functional.
Turning to `COC(=O)C(c1ccccc1)C1CCCCN1` (stereo unspecified) [METHYLPHENIDATE], the minimal effective dose came out at 0.1 mg/kg.

The next assay relates to Rattus norvegicus. The experiment in a line: Prevention of attention deficit/hyperactivity in po dosed spontaneously hypertensive stroke-prone rat assessed as prolongation of cumulative entry latency administered for 30 mins by passive avoidance response test. The assay is classed as functional. The conditions noted are these: 0.5 h, read-out: MED.
For `Fc1ccc(Nc2nc(NCc3ncccn3)nc(Nc3ccc(F)cc3)n2)cc1`, the minimal effective dose was 0.03 mg/kg.
`Cl.Nc1nc(Nc2ccc(F)cc2)nc(N(Cc2ccnc(F)c2)c2ccccc2)n1`: the minimal effective dose turned out to be 3 mg/kg.
On the same count and under the same terms, next, `COc1ccc(Nc2nc(NCc3ncccn3)nc(Nc3ccc(F)cc3)n2)cc1`: 0.3 mg/kg; `Fc1ccc(Nc2nc(NCc3ccncn3)nc(Nc3ccc(F)cc3)n2)cc1`: 0.03 mg/kg.
As for `Fc1ccc(Nc2nc(NCc3ncccn3)nc(Nc3ccccc3)n2)cc1`, the minimal effective dose was 0.1 mg/kg.
